Assay results: ChEMBL document CHEMBL4765294, “Discovery and evaluation of new compounds targeting ribosomal protein S1 in antibiotic-resistant Mycobacterium Tuberculosis” (Eur J Med Chem, 2020)
Activity calls are given as the source filed them. No cut-off for these calls is given here.

Target: not listed separately
Experiment: Binding affinity to Mycobacterium tuberculosis RpsA Ala438 deleted mutant C-terminal domain (285 to 476 residues) assessed as dissociation constant by fluorescence quenching titration based analysis

Structure (SMILES) | Kd [µM]
CCOC(=O)CSc1nc2nc[nH]c2c(=O)[nH]1 | 0.31
O=C(O)CSc1nc2nc[nH]c2c(=O)[nH]1 | 5.11
CC(Sc1nc(N)cc(N)n1)C(=O)O (centres undefined) | 1.74
Cc1ccc(CNC(=O)COc2cc(O)c3c(=O)cc(-c4ccccc4)oc3c2)cc1 | 1.64
Cc1cccc(CNC(=O)COc2cc(O)c3c(=O)cc(-c4ccccc4)oc3c2)c1 | 6.91
Cc1cccc(CNC(=O)CSc2nc3nc[nH]c3c(=O)[nH]2)c1 | 4.67
Cc1ccc(CNC(=O)CSc2nc3nc[nH]c3c(=O)[nH]2)cc1 | 8.5

System: Mycobacterium tuberculosis
Experiment: Binding affinity to Mycobacterium tuberculosis RpsA Ala438 deleted mutant C-terminal domain (285 to 476 residues) at 500 uM by STD based analysis

Structure (SMILES) | Activity
CCOC(=O)CSc1nc2nc[nH]c2c(=O)[nH]1 | Active
O=C(O)CSc1nc2nc[nH]c2c(=O)[nH]1 | Active
Cc1ccc(CNC(=O)COc2cc(O)c3c(=O)cc(-c4ccccc4)oc3c2)cc1 | Active
Cc1cccc(CNC(=O)COc2cc(O)c3c(=O)cc(-c4ccccc4)oc3c2)c1 | Active
Cc1cccc(CNC(=O)CSc2nc3nc[nH]c3c(=O)[nH]2)c1 | Active
Cc1ccc(CNC(=O)CSc2nc3nc[nH]c3c(=O)[nH]2)cc1 | Active

System: Mycobacterium tuberculosis
Experiment: Binding affinity to Mycobacterium tuberculosis RpsA Ala438 deleted mutant C-terminal domain (285 to 476 residues) assessed as quenching rate constant by fluorescence quenching titration based analysis

Structure (SMILES) | Kq
CCOC(=O)CSc1nc2nc[nH]c2c(=O)[nH]1 | 3.4 10^12/M/s
O=C(O)CSc1nc2nc[nH]c2c(=O)[nH]1 | 1.91 10^12/M/s
Cc1ccc(CNC(=O)COc2cc(O)c3c(=O)cc(-c4ccccc4)oc3c2)cc1 | 6.64 10^12/M/s
Cc1cccc(CNC(=O)COc2cc(O)c3c(=O)cc(-c4ccccc4)oc3c2)c1 | 2.33 10^12/M/s
Cc1cccc(CNC(=O)CSc2nc3nc[nH]c3c(=O)[nH]2)c1 | 2.54 10^12/M/s
Cc1ccc(CNC(=O)CSc2nc3nc[nH]c3c(=O)[nH]2)cc1 | 3.68 10^12/M/s
